Assays:
B16F10 melanoma cells = assay: MTT cell viability assay, B16F10; assay type: cell-based, murine; conditions: Mus musculus, B16-F10, 24 h exposure then 48 h
Experimental: B16F10 cells (ATCC) were cultured in Dulbecco's modified Eagle's media (DMEM, Life Technologies), supplemented with 10% (v/v) fetal bovine serum (FBS, Atlanta Biologicals) and 1% (v/v) penicillin-streptomycin (penstrep, Life Technologies). Cells were maintained at 37°C, 5% CO2. Confluent cells were removed with 0.05% (w/v) trypsin-EDTA (Life Technologies), seeded at 2 x 10^3 cells/100µL/well in 96-well plates, and grown overnight at 37°C, 5% CO2. The next day, cells were washed 2 times with PBS and incubated with free DOX or PVX-DOX corresponding to 0, 0.01, 0.05, 0.1, 0.5, 1, 5, or 10 µM DOX for 24 h, in triplicate. A PVX only control corresponded to the amount of PVX in the highest PVX-DOX sample. Following incubation, cells were washed 2 times to remove unbound DOX or particles. Fresh medium (100 µL) was added and cells were returned to the […] incubator for 48 h.

[1] = test system: A2780 human ovarian cancer; assay: MTT cytotoxicity evaluation, A2780; assay type: cell-based
Experimental: (§1) A2780, a gift from Dr. Analisa DiFeo (Case Western Reserve University) were cultured in Dulbecco's modified Eagle's media (DMEM, Life Technologies), supplemented with 10% (v/v) fetal bovine serum (FBS, Atlanta Biologicals) and 1% (v/v) penicillin-streptomycin (penstrep, Life Technologies). HeLa (ATCC) were cultured in minimum essential media (MEM, Life Technologies), supplemented with 10% (v/v) FBS, 1% (v/v) penstrep, and 1% (v/v) L-glutamine (Life Technologies). MDA-MB-231, a gift from Dr. Ruth Keri (Case Western Reserve University), were cultured in Roswell Park Memorial Institute (RPMI, Life Technologies) medium supplemented with 10% (v/v) FBS, 1% (v/v) penstrep, and 1% (v/v) L-glutamine. All cells were maintained at 37°C and 5% CO2.
(§2) Confluent cells were removed with 0.05% (w/v) trypsin-EDTA (Life Technologies), seeded at either 2 × 10^3 cells/100 µL/well (MDA-MB-231 and HeLa) or 5 × 10^3 cells/100 µL/well (A2780) in 96-well plates and grown overnight at 37°C, 5% CO2. The next day, cells were washed 2 times with PBS and incubated with free DOX, PVX-DOX, or PEG-PVX-DOX corresponding to 0, 0.01, 0.05, 0.1, 0.5, 1, 5, or 10 µM (A2780, MDA-MB-231) or 0, 0.1, 0.5, 1, 5, 10, 25, or 50 µM (HeLa) DOX for 24 h, in triplicate. A PVX only control corresponded to the amount of PVX in the highest PVX-DOX sample. Following incubation, cells were washed 2 times to remove unbound DOX or particles. […]

[2] = test system: MDA-MB-231 human breast cancer; assay: MTT cytotoxicity evaluation, MDA-MB-231; assay type: cell-based; conditions: MDA-MB-231, 24 h exposure then 48 h, MTT assay
Experimental: as §1, §2

[3] = test system: HeLa human cervical cancer; assay: MTT cytotoxicity evaluation, HeLa; assay type: cell-based; conditions: 24 h exposure then 48 h, MTT assay
Experimental: as §1, §2

A2780 cells = assay: tracking of free DOX and PVX-DOX in cells (fluorescence microscopy); assay type: cell-based, human; conditions: 1.5 µM DOX, at 48 h
Experimental: A2780 cells were grown to confluency and removed with 0.05% (w/v) trypsin-EDTA. Cells were seeded at 1 × 10^4 cells/500 µL/well on coverslips in untreated 24-well plates and grown overnight at 37°C, 5% CO2. The next day, cells were washed 3 times and incubated with free DOX or PVX-DOX (1.5 µM DOX) for 2, 4, 12, 24, or 48 h. Following incubation, cells were washed 3 times and fixed in DPBS (Corning) containing 5% (v/v) paraformaldehyde (Electron Microscopy Sciences) and 0.3% (v/v) glutaraldehyde (Polysciences) for 10 min at room temperature. Coverslips were mounted using Fluoroshield (Sigma). Slides were imaged on a Zeiss Axio Observer Z1 motorized FL inverted microscope. Fluorescence intensity was analysed as follows using ImageJ 1.47d. All images were identically processed prior to fluorescence intensity measurement. Nuclei were selected and analyzed for fluorescence intensity using the measure feature of ImageJ. For each sample, a minimum of 3 images was analyzed and at least 4 cells were analyzed per image.

MDA-MB-231 tumors = assay: MDA-MB-231 tumor-bearing athymic mouse model, intravenous treatment; assay type: in vivo, NCR nu/nu mice; conditions: 1 mg/kg DOX i.v. every 5 days
Experimental: All experiments were conducted in accordance with Case Western Reserve University's Institutional Animal Care and Use Committee. Female NCR nu/nu mice (6 weeks old) were injected subcutaneously into the right flank with 2 × 10^6 MDA-MB-231 cells suspended in 100 µL of media and Matrigel (Corning) at a 1:1 ratio. When tumors reached 100-200 mm^3, a dosage of 1.0 mg/kg body weight DOX was injected intravenously (this dosage corresponds to 1.0 - 2.0 mg PVX depending on batches). Groups of 4 animals each were treated with PEG-PVX-DOX, free DOX, or PBS. The dosage was normalized to the DOX content. Treatments were performed every 5 days, and a total of 5 treatments was given.
Tumors were measured daily and total volume was calculated using the formula: v = (l × w^2)/2. Mice were euthanized following 25 days of treatment.

COc1cccc2c1C(=O)c1c(O)c3c(c(O)c1C2=O)C[C@@](O)(C(=O)CO)C[C@@H]3O[C@H]1C[C@H](N)[C@H](O)[C@H](C)O1 [DOX, doxorubicin]
IC50 (B16F10 melanoma cells): 280 nM | cell killing effectiveness relative to PVX-DOX ([1]; A2780, MTT assay): 4 times | IC50 ([1]; Homo sapiens, A2780, 24 h exposure then 48 h, MTT assay): 220 nM | IC50 [2]: 130 nM | IC50 [3]: 1600 nM | drug-induced apoptosis (A2780 cells): apparent | day post first treatment from which differences to PBS were statistically significant (MDA-MB-231 tumors; p<0.05): > 22 days | tumor volumes smaller than the PBS control (MDA-MB-231 tumors; at the end of the treatment, 5 injections): 2.1 times
